Test results as given in patent US20220008296A1, “CAPSULE FORMULATION” (Capsugel Belgium NV, priority 2014, published 2022).

Experiments:
[1] = acid resistance experiment: litmus colour inside oil-filled, band-sealed DRcaps capsule submerged in acid; format: physicochemical; parameters: key to Result (color): −: almost all red/unsuitable; +: about half red/passable; ++: all blue/excellent; conditions: for liquid color / acidification inside the capsule (in words) / Result (color): 120 minutes after submersion in JP first liquid pH1.2, 37°; for liquid color / acidification inside the capsule (in words): Example 2; for Result (color): colour of litmus powder in the fill of a DRcaps capsule, n=3
Description: The fine powder of a litmus reagent that changes to red in response to acid (blue, Wako Pure Chemical Industries Ltd. high grade), used as an active ingredient, is dispersed or dissolved in 0.2% by weight each of MCT, which is an edible oil (medium chain fatty acid triglyceride, coconad MT (made by Kao Co.) and glycerin, which is a water-based edible additive (made by Kao Co.) (dissolves very readily in water, comparative example). Then, 300 μL each of this solution is loaded into the separated body portion of an acid resistant hard capsule made by Capsugel (DRcaps (trademark), size no. 2, transparent no color). Then, a capsule formulation is prepared by sealing the fitted part of the cap portion and the body portion of the hard capsule using a band sealing solution (see FIG. 1). It should be noted that the band sealing solution is produced based on the information described in International Application PCT/US2013/041838 (application date May 20, 2013) (title of invention “ACID RESISTANT BANDING SOLUTION FOR TWO PIECE HARD CAPSULES”) wherein US Patent Application No. 61/707,135 (application date: Sep. 28, 2012) forms the basic application, which is an undisclosed application. The composition of the band sealing solution is ethanol: 59.9% by weight, shellac: 37.0% by weight, water: 1.6% by weight, and surfactant (sorbitan fatty acid aster and glycerin fatty acid ester) 1.5% by weight.
These capsule formulations are wrapped in wire to prevent the capsule formulations from floating up, and submerged in the first liquid (pH1.2 liquid) in the Japanese Pharmacopoeia which is maintained at 37° to simulate the gastric acid inside a living organism.
The experiment was carried out with the same conditions used in example 1 (amount of oil, measurement conditions, measurement time, and the like), and the effect on acid resistance when another oil or surfactant is enclosed in the capsule was examined. In this example, the following criteria were determined based on the color of the fine litmus powder dissolved or dispersed in oil enclosed in a capsule.
These capsule formulations were wrapped in wire to prevent the capsule formulations from floating up, and submerged in the first liquid (pH1.2 liquid) in the Japanese Pharmacopoeia maintained at 37° to simulate the gastric acid inside a living organism. The color of the liquid in the capsule 120 minutes after submersion is shown (see FIG. 4).
It should be noted that because the four oils, DHA, rice germ oil, vitamin E, and vitamin A, are light yellow to dark green, visually confirming the change of the fine litmus powder from blue to red due to acid seeping into oil within the capsule was difficult. Therefore, the color was confirmed by enlarging the litmus particles dispersed within the oil from outside the capsule using a microscope. The determination criteria for this was the same as described above (see FIG. 5).

[2] = cited from earlier work

Row | Compound | liquid color / acidification inside the capsule (in words) [1] | liquid color in the capsule ([1]; after 20 minutes in JP first liquid pH1.2, 37°, Example 1) | Result (color) [1] | Specific Gravity (25° C.) [2]
1 | OCC(O)CO [Glycerin, reference compound] | the entire inside of the capsule turned red | the entire inside of the capsule turned red | − | 1.264
2 | Glycerin fatty acid ester | the entire inside of the capsule turned red |  | − | 1.02
3 | Sorbitan fatty acid ester | the entire inside of the capsule turned red |  | − | 0.95
4 | Vitamin A | the interior of the capsule did not become acidic |  | ++ | 0.92
